# Measurements as given in ChEMBL document CHEMBL1132670, “Combinatorial search of substituted beta-cyclodextrins for phosphatase-like activity” (Bioorg Med Chem Lett, 1999).
# Test: Pseudo-first-order rate constant was determined by hydrolysis p-NPP in the presence of Zn 2+ at 37 C
# Format: ADME
compound,measurement,value
OC[C@H]1O[C@@H]2O[C@H]3[C@H](O)[C@@H](O)[C@@H](O[C@H]4[C@H](O)[C@@H](O)[C@@H](O[C@H]5[C@H](O)[C@@H](O)[C@@H](O[C@H]6[C@H](O)[C@@H](O)[C@@H](O[C@H]7[C@H](O)[C@@H](O)[C@@H](O[C@H]8[C@H](O)[C@@H](O)[C@@H](O[C@H]1[C@H](O)[C@H]2O)O[C@@H]8CO)O[C@@H]7CO)O[C@@H]6CO)O[C@@H]5CO)O[C@@H]4CO)O[C@@H]3CO [BETADEX],K obs,4.16e-07 s⁻¹
